Data on six molecules can be found in patent publication US10888567B2, “Inhibitors of tryptophan dioxygenases (IDO1 and TDO) and their use in therapy” (AUCKLAND UNISERVICES LIMITED, priority 2014, dated 2021).

SMILES strings stand for the structures. pIC50: −log10 of the molar value. Some results are limits rather than exact numbers.

Experiment [1] concerns the target human TDO (GL261 cells transfected to over-express full length human TDO) (Homo sapiens (Human), UniProt P48775). The experiment is described as follows: Cell-based assay for TDO inhibition. Particulars: GL261 cells over-expressing human TDO, 24 h; read-out: Cellular IC50. How it is done: Culture supernatant from each well was then transferred into a fresh, flat-bottomed 96-well plate, and kynurenine content was determined as described above for the IDO1 assay, and the concentration that inhibited 50% cellular enzyme activity was calculated.

The target in experiment [2] is human IDO1 (LLTC-hIDO1 cells) (Homo sapiens, UniProt P14902). In words: Cell-based assay for IDO1 inhibition (kynurenine in supernatant). Conditions: IDO1-transfected Lewis Lung carcinoma cells, 24 h; read-out: Cellular IC50. How it is done:
Culture supernatant from each well was then transferred into a fresh, flat-bottomed 96-well plate, mixed with trichloroacetic acid (10% final concentration) and incubated for 20 min at 60° C. […] The absorbance of each well was read at 480 nm, and the concentration that inhibited 50% cellular enzyme activity was calculated.

Experiment [3] concerns GL261 cells transfected to over-express human TDO. In words: MTT cell viability in the cellular TDO assay. It counts as cell-based. Conditions: same experiment as cellular TDO assay. The method, then: The viability of the cells in each well in the same experiment was determined using the 3-(4,5-dimethylthiazolyl-2-yl)-2,5-diphenyltetrazolium bromide (MTT) colourimetric assay.

The target in experiment [4] is Recombinant human IDO1 (rhIDO1) (Homo sapiens (Human), UniProt P14902). The experiment is described as follows: Enzymatic assay for IDO1 activity. It is filed as biochemical. Particulars: rhIDO1 9 nM, 80 μM TRP, 37° C. 30 min. How it is done: Recombinant human IDO1 (rhIDO1) was expressed and purified from cultures of EC538 strain of E. coli transformed with pREP4 and pQE9-IDO plasmid. Reaction mixes were set up in 384-well microplates containing 50 mM phosphate buffer, 10 mM ascorbic, 10 μM methylene blue, 100 μg/mL catalase, 80 μM TRP, 0.01% Tween 20 (v/v) mixed with rhIDO1 (15 μL) at a final concentration of 9 nM in a total volume of 30 μL assay medium. The plates were incubated at 37° C. for 30 min, and the enzymatic reaction was terminated by adding piperidine (200 mM) and heated at 65° C. for 20 min. Fluorescence intensity was read at λex 400 nm and λem 500 nm. Test compounds were dissolved in 100% DMSO and pre-diluted in assay medium prior to adding rhIDO1. IDO1 inhibition (%) was calculated as
Sequence of Recombinant human IDO1 (rhIDO1) (P14902 whole entry): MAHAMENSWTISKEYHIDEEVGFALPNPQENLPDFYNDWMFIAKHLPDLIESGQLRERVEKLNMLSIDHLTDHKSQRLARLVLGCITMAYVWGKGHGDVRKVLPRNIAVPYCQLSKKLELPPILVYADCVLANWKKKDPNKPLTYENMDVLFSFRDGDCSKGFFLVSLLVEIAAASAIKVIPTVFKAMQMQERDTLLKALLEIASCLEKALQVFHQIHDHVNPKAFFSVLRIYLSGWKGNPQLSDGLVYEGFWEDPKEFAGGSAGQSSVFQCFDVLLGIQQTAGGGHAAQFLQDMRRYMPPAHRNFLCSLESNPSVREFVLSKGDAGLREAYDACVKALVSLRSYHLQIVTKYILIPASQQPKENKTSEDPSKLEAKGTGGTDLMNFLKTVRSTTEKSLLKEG
[formula] All experiments were carried out in triplicates, and statistical Analyses were conducted in Prism v5 (Graphpad Software, Inc., La Jolla, Calif., USA). Cell-Based Assay for IDO1 Inhibition

Experiment [5] deals with Lewis Lung carcinoma cells transfected to express IDO1 (LLTC-hIDO1). The experiment is described as follows: MTT cell viability in the cellular IDO1 assay. Conditions: same experiment as cellular IDO1 assay. It counts as cell-based. The method, then:
The viability of the cells in each well in the same experiment was determined using the 3-(4,5-dimethylthiazolyl-2-yl)-2,5-diphenyltetrazolium bromide (MTT) colourimetric assay. After the removal of the supernatant for determination of IDO1 inhibition, the cells were incubated with MTT (500 μg/mL) until crystal formation was observed. […] DMSO (100 μL/well) was added to dissolve the crystals and then the absorbance in each well was measured at 570 nm. Cell viability in each well was expressed as a percentage of untreated controls. Triplicate cultures were used for all experiments unless stated otherwise.

Sequence of human TDO (GL261 cells transfected to over-express full length human TDO) (P48775 whole entry): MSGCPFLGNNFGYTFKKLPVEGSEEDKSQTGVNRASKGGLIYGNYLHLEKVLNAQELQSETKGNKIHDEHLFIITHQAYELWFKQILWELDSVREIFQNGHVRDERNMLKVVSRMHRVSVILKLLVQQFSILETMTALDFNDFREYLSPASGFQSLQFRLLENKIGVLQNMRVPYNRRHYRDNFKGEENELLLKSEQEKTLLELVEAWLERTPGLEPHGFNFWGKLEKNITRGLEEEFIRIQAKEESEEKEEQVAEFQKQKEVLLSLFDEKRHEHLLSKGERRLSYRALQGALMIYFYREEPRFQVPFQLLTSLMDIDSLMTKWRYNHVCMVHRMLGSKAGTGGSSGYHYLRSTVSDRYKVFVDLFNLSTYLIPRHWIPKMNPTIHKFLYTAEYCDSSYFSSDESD

Consider `Cc1nc2onc(N)c2c(C)c1Cl` [Compound 3, 5-Chloro-4,6-dimethylisoxazolo[5,4-b]pyridin-3-amine], for which the pIC50 in experiment [1] was 5.00 to 6.00; in experiment [2] it was greater than 6.00; in experiment [3], less than 4.00; in experiment [4], 5.00 to 6.00; in experiment [5], less than 4.00.
As for `Nc1noc2nc(Cl)c(F)cc12` [Compound 66, 6-Chloro-5-fluoroisoxazolo[5,4-b]pyridin-3-amine], the pIC50 is greater than 6.00 in experiment [1]; greater than 6.00 in experiment [2]; less than 4.00 in experiment [3]; greater than 6.00 in experiment [4]; less than 4.00 in experiment [5].
Take `Nc1noc2nc(Cl)ccc12` [Compound 11, 6-Chloroisoxazolo[5,4-b]pyridin-3-amine]: the pIC50 in experiment [1] is greater than 6.00; in experiment [2], greater than 6.00; in experiment [3], less than 4.00; in experiment [4] it was 5.00 to 6.00; in experiment [5] it was less than 4.00.
For the molecule `Nc1noc2nc(Oc3ccc(OC(F)(F)F)cc3)ccc12` [Compound 89, 6-(4-(Trifluoromethoxy)phenoxy)isoxazolo[5,4-b]pyridin-3-amine], the pIC50 in experiment [1] was 4.00 to 5.00; in experiment [2], 4.00 to 5.00; in experiment [3], less than 4.00; in experiment [4], less than 4.00; in experiment [5], less than 4.00.
As for `Nc1noc2ncc(I)cc12` [Compound 16, 5-Iodoisoxazolo[5,4-b]pyridin-3-amine], the pIC50 in experiment [2] was greater than 6.00; in experiment [4] it was 5.00 to 6.00; in experiment [5] it was less than 4.00.
In the same order, the values of `Nc1noc2ncc([N+](=O)[O-])cc12` [Compound 49, 5-Nitroisoxazolo[5,4-b]pyridin-3-amine] are greater than 6.00, 5.00 to 6.00 and less than 4.00.

The term pIC50 denotes −log10 of the IC50, conventionally taken in molar units.
